Laboratory results reported in patent publication US11642548B2, “Sterilization method and sterilization apparatus” (Ushio Denki Kabushiki Kaisha, priority 2017, dated 2023).

Tests used:
[1] = tested on: region irradiated with ultraviolet (palm of the right hand); experiment: Test Example 4: application of amino acid aqueous solution to palm irradiated with 222 nm ultraviolet, assessment of change in smell; assay type: in vivo, human; conditions: 1 mM aqueous solution sprayed and rubbed in on palm irradiated with 222 nm UV, 3.8 mW/cm^2, 30 seconds, smell of burning hair before application, Assessor M1, other five gave the same results
Source text: Similarly to the method of Test Example 1, using the ultraviolet irradiation apparatus 1 shown in FIG. 1, the palm of the right hand of each of six assessors M1, M2, M3, M4, M5, and M6 was irradiated with ultraviolet, with a peak wavelength at 222 nm and an irradiance of 3.8 mW/cm^2 for an irradiation period of 30 seconds.
After that, each aqueous solution of the eighteen types of amino acids used in Test Example 3 (cystine, glutamic acid, leucine, arginine, serine, threonine, aspartic acid, proline, glycine, valine, alanine, phenylalanine, isoleucine, tyrosine, lysine, histidine, methionine, and tryptophan) was applied to the region irradiated with ultraviolet (molar concentration: 1 mM). More specifically, each aqueous solution was sprayed and rubbed in with the palm of the hand. This was followed by an assessment of any changes in the smell before and after application of each aqueous solution.

[2] = Test Example 3: odor of amino acid aqueous solutions before and after irradiation of ultraviolet at a peak wavelength of 222 nm (sensory evaluation); assay type: physicochemical; conditions: for Odor before irradiation: 3 mL aqueous solution of amino acid in petri dish, before ultraviolet irradiation; for Comparison with smells in Test example 1: odor after 222 nm UV irradiation of the solution compared with odor of UV-irradiated human hand, sensory evaluation by six assessors
Procedure: Looking at amino acids that form the proteins in the epidermis, then changes in the odor before and after irradiation of ultraviolet at a peak wavelength of 222 nm with respect to the following eighteen types of amino acids are examined More specifically, a 3 mL aqueous solution of each type of amino acid was put in a φ40 petri dish, and using the same light source as that of the ultraviolet irradiation apparatus 1, irradiated with ultraviolet with an irradiance of 3.8 mW/cm^2 for an irradiation period of 30 seconds. The petri dish and the light source were spaced apart by 8 cm. The eighteen types of amino acids were: Cystine, glutamic acid, leucine, arginine, serine, threonine, aspartic acid, proline, glycine, valine, alanine, phenylalanine, isoleucine, tyrosine, lysine, histidine, methionine, and tryptophan. These eighteen amino acids are all known as the substances that form proteins contained in the epidermis.
The comparison with the odor in Test Example 1 was made by sensory evaluation performed by the six assessors M1, M2, M3, M4, M5, and M6.

Row | Odor before irradiation [2] | Comparison with smells in Test example 1 [2] | SMILES | Smell after application of amino acid solution [1] | other results
1 | No smell | Different | N[C@@H](Cc1ccc(O)cc1)C(=O)O [Tyrosine, tyrosine] | – | –
2 | No smell | Different | O=C(O)[C@@H]1CCCN1 [Proline, proline] | Smell disappeared | Smell after application of amino acid solution ([1]; listed as proline): no odor was detected; Odor after irradiation ([2]; 3 mL aqueous solution in petri dish, UV peak 222 nm, 3.8 mW/cm^2, 30 seconds, 8 cm from light source): Smell like lysine
3 | No smell | Different | C[C@@H](O)[C@H](N)C(=O)O [Threonine, threonine] | – | –
4 | – | substantially the same | CC(C)[C@H](N)C(=O)O [Valine, valine] | Smell disappeared | Smell after application of amino acid solution ([1]; listed as valine): no odor was detected
5 | No smell | Different | N[C@@H](CO)C(=O)O [Serine, serine] | Smell disappeared | Smell after application of amino acid solution ([1]; listed as serine): no odor was detected
6 | – | Different | N[C@@H](Cc1ccccc1)C(=O)O [Phenylalanine, phenylalanine] | – | –

The next lines start with the compound.

Row | SMILES | Odor before irradiation [2] | Comparison with smells in Test example 1 [2] | Smell after application of amino acid solution [1] | other results
7 | N[C@@H](CCC(=O)O)C(=O)O [Glutamic acid, glutamic acid] | Slight smell | Different | Smell disappeared | Smell after application of amino acid solution ([1]; listed as glutamic acid): no odor was detected
8 | CSCC[C@H](N)C(=O)O [Methionine, methionine] | – | substantially the same | Smell disappeared | Smell after application of amino acid solution ([1]; listed as methionine): no odor was detected
9 | N[C@@H](CC(=O)O)C(=O)O [Aspartic acid, aspartic acid] | No smell | Different | Smell disappeared | Smell after application of amino acid solution ([1]; listed as aspartic acid): no odor was detected
10 | C[C@H](N)C(=O)O [Alanine, alanine] | – | Different | – | –
11 | N[C@@H](CSSC[C@H](N)C(=O)O)C(=O)O [Cystine] | No smell | Different | – | –
12 | CC(C)C[C@H](N)C(=O)O [Leucine, leucine] | – | substantially the same | Smell disappeared | Smell after application of amino acid solution ([1]; listed as leucine): no odor was detected
13 | NCC(=O)O [Glycine, glycine] | No smell | Different | Smell disappeared | Smell after application of amino acid solution ([1]; listed as glycine): no odor was detected
14 | CC[C@H](C)[C@H](N)C(=O)O [Isoleucine, isoleucine] | – | substantially the same | Smell disappeared | Smell after application of amino acid solution ([1]; listed as isoleucine): no odor was detected
15 | N=C(N)NCCC[C@H](N)C(=O)O [Arginine, arginine] | – | Different | Smell disappeared | Smell after application of amino acid solution ([1]; listed as arginine): no odor was detected
16 | N[C@@H](Cc1c[nH]cn1)C(=O)O [Histidine, histidine] | No smell | Different | – | –
17 | NCCCC[C@H](N)C(=O)O [Lysine, lysine] | – | Different | – | –
